Measurements reported in ChEMBL document CHEMBL3132769, “Fragment growing to retain or alter the selectivity of anchored kinase hinge-binding fragments” (Medchemcomm, 2014).

How the values were obtained:
[1] = biological target: T1, Cytoplasmic tyrosine-protein kinase BMX (Homo sapiens) (UniProt P51813); assay: Inhibition of human full length BMX expressed in baculovirus assessed as substrate phosphorylation using fluorescence-labelled peptides as substrate at 0.2 uM after 90 mins by microfluidic peptide phosphorylation assay
T1 sequence (whole entry): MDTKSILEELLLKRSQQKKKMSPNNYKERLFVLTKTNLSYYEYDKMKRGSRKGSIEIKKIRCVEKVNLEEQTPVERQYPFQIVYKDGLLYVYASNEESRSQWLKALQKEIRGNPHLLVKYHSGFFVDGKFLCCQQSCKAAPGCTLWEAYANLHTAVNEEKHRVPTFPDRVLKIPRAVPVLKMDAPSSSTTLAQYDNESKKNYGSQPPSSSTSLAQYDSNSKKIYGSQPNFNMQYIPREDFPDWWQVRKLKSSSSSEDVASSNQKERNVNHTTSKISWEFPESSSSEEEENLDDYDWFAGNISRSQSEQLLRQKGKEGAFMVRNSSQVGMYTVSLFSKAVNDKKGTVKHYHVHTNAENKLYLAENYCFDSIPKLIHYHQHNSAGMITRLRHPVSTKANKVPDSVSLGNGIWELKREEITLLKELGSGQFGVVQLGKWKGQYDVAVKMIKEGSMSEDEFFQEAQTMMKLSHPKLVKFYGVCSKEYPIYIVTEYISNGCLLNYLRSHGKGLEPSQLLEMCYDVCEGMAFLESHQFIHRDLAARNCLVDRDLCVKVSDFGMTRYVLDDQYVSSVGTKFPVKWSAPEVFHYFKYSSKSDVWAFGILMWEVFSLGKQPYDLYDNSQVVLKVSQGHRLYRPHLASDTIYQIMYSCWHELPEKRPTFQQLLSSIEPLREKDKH

[2] = biological target: Ribosomal protein S6 kinase alpha-1 (Homo sapiens) (UniProt Q15418); assay: Inhibition of human full length RSK1 expressed in baculovirus assessed as substrate phosphorylation using fluorescence-labelled peptides as substrate at 8 uM after 90 mins by microfluidic peptide phosphorylation assay
[3] = biological target: T2, Mitogen-activated protein kinase 13 (Homo sapiens) (UniProt O15264); assay: Inhibition of human full length p38 delta expressed in Escherichia coli cell assessed as substrate phosphorylation using fluorescence-labelled peptides as substrate at 2 uM after 90 mins by microfluidic peptide phosphorylation assay
T2 sequence (whole entry): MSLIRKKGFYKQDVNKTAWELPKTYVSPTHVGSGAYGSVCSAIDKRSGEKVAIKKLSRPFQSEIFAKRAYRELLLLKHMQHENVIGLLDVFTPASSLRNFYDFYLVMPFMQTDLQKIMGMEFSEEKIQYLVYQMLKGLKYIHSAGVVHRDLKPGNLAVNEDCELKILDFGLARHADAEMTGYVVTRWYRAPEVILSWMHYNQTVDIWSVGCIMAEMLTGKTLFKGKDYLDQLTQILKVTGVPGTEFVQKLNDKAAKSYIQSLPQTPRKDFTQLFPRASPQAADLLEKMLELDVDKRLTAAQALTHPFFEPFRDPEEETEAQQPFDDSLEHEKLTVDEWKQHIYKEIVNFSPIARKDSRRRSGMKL

[4] = biological target: T3, Testis-specific serine/threonine-protein kinase 1 (Homo sapiens) (UniProt Q9BXA7); assay: Inhibition of human full length TSSK1 expressed in baculovirus assessed as substrate phosphorylation using fluorescence-labelled peptides as substrate at 1000 uM after 90 mins by microfluidic peptide phosphorylation assay
T3 sequence (whole entry): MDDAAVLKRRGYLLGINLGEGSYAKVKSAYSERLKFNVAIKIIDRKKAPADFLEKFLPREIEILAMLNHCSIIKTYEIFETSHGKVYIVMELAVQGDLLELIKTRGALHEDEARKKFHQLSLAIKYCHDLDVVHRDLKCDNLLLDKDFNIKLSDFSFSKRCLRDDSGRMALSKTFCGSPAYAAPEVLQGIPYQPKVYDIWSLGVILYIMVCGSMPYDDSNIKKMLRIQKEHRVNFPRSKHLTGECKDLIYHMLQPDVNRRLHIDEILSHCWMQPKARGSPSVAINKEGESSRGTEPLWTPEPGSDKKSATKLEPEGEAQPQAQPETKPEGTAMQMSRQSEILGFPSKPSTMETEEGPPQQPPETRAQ

[5] = biological target: Receptor-type tyrosine-protein kinase FLT3 (Homo sapiens) (UniProt P36888); assay: Inhibition of human FLT3 catalytic domain expressed in baculovirus assessed as substrate phosphorylation using fluorescence-labelled peptides as substrate at 1000 uM after 90 mins by microfluidic peptide phosphorylation assay
[6] = biological target: Protein kinase C gamma type (Homo sapiens) (UniProt P05129); assay: Inhibition of human truncated PKC gamma expressed in baculovirus assessed as substrate phosphorylation using fluorescence-labelled peptides as substrate at 1000 uM after 90 mins by microfluidic peptide phosphorylation assay
[7] = biological target: T4, Serine/threonine-protein kinase D3 (Homo sapiens) (UniProt O94806); assay: Inhibition of human full length PKD3 expressed in baculovirus assessed as substrate phosphorylation using fluorescence-labelled peptides as substrate at 420 uM after 90 mins by microfluidic peptide phosphorylation assay
T4 sequence (whole entry): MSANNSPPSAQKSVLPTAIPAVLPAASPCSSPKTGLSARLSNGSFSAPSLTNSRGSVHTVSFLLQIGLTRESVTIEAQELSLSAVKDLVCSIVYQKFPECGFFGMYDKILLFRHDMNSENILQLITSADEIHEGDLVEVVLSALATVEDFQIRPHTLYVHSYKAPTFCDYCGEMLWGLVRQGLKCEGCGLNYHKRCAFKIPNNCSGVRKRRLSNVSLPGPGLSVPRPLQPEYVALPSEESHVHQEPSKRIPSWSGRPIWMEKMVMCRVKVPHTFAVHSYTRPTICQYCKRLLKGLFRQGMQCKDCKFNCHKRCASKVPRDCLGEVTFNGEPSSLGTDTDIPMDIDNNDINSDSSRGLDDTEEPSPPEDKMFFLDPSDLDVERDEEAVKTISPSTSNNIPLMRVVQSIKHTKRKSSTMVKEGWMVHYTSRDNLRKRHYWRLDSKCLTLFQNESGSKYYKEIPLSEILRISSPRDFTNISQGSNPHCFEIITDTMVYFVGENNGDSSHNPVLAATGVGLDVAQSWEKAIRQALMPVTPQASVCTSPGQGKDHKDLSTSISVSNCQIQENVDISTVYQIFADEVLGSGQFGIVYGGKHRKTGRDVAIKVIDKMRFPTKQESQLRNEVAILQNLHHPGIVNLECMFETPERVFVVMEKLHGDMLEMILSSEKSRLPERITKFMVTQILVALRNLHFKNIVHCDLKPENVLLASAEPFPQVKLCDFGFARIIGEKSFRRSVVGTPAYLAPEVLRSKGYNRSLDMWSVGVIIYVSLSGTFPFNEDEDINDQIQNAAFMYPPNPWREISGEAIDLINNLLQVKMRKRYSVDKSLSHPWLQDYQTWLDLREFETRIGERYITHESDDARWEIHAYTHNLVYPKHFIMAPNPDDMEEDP

[8] = biological target: Tyrosine-protein kinase Fyn (Homo sapiens) (UniProt P06241); assay: Inhibition of human full length FYN expressed in baculovirus assessed as substrate phosphorylation using fluorescence-labelled peptides as substrate at 9 uM after 90 mins by microfluidic peptide phosphorylation assay
Tyrosine-protein kinase Fyn (Homo sapiens), sequence (P06241 2-537 limits assumed): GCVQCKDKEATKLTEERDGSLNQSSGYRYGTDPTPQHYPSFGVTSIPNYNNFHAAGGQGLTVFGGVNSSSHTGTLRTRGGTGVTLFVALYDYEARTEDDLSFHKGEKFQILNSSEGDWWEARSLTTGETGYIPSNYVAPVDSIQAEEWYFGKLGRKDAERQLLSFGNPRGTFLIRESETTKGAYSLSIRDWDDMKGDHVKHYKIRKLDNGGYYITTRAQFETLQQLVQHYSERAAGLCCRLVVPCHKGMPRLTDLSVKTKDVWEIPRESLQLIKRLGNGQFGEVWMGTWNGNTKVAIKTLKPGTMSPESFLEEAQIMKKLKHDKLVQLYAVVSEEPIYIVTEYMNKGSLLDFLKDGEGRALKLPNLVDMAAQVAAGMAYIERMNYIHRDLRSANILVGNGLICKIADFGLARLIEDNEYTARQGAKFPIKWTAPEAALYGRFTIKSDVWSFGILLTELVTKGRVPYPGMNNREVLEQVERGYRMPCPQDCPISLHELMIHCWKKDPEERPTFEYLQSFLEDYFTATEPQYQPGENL

Ribosomal protein S6 kinase alpha-1 (Homo sapiens), sequence (Q15418 whole entry): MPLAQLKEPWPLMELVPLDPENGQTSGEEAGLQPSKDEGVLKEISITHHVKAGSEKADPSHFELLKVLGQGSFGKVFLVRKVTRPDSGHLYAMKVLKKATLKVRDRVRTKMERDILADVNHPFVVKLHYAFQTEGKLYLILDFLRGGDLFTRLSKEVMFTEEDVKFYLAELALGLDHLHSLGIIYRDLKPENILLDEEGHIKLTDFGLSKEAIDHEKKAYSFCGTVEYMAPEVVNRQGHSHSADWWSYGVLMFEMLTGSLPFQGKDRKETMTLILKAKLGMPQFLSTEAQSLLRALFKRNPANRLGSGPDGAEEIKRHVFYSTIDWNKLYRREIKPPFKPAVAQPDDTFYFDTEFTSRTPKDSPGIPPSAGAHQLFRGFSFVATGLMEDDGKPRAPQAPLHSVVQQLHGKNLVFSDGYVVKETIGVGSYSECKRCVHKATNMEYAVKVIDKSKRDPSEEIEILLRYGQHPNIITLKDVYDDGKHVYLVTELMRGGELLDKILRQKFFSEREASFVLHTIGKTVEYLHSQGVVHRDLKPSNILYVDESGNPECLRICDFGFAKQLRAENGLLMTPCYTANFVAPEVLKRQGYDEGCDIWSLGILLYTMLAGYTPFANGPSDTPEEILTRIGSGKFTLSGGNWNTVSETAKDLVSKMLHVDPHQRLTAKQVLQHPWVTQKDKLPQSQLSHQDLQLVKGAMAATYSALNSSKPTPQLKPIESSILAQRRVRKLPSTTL
Receptor-type tyrosine-protein kinase FLT3 (Homo sapiens), sequence (P36888 whole entry, the tested form may be a part): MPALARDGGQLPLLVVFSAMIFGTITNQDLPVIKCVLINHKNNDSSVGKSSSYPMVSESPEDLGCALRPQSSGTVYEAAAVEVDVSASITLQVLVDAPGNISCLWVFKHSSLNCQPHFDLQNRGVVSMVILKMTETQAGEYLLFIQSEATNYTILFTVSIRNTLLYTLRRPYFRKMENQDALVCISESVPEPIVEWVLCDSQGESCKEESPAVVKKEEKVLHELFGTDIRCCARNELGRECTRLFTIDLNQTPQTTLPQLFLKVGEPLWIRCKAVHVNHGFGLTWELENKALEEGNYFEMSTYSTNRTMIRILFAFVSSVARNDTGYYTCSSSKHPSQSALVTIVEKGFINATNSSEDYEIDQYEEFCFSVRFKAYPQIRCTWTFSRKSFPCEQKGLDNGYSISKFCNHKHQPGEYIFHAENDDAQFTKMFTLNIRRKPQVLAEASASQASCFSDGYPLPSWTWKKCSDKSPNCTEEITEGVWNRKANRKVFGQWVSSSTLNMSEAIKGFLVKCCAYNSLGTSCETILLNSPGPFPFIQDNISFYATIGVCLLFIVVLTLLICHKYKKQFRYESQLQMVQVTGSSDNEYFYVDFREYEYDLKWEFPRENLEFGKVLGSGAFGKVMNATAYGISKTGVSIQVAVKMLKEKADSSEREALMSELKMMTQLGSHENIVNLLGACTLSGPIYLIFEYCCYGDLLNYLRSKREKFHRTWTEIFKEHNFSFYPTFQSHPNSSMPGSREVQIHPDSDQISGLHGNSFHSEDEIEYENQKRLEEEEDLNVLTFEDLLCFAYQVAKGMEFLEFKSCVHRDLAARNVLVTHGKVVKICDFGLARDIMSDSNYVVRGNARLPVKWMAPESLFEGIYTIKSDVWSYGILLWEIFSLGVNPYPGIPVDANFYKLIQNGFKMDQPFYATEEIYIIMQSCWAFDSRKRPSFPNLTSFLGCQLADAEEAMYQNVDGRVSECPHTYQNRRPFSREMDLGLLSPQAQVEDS

Question: Which inhibition [1] does the source give for `Clc1ccc(C2(c3ccc(-c4ncnc5[nH]cnc45)cc3)CCNCC2)cc1` here?
Answer: The inhibition was 4%.

Question: How did the inhibition [2] turn out when `NCC1CCN(c2ncnc3[nH]ccc23)CC1` was run?
Answer: Its inhibition is 11.5%.

Question: How did the inhibition [3] turn out when `NC1CCN(c2ncnc3[nH]ccc23)CC1` was run?
Answer: Its inhibition is 8%.

Question: `c1cnc2[nH]ccc2c1` was tested. Which inhibition [4] did it give?
Answer: Its inhibition is 52.5%.

Question: And the inhibition [5]?
Answer: The inhibition was 75.5%.

Question: What about the inhibition [6] of the same compound?
Answer: The inhibition was 57%.

Question: For `c1nc(N2CCOCC2)c2nc[nH]c2n1`, which inhibition [7] is on record?
Answer: Its inhibition is 85%.

Question: `NCC1CN(c2ncnc3[nH]c4cnccc4c23)CCO1` (stereo not drawn) was tested. Which inhibition [8] did it give?
Answer: The inhibition was 29.5%.
